Where two headings read alike, the source gives them in different places.
Tested on: Salmonella typhimurium TA100

O=C1OC[C@H](Cc2ccc3c(c2)OCO3)[C@H]1Cc1ccc2c(c1)OCO2 [HK, (−)-hinokinin]
MI (mutagenicity index) (TA 100, + S9, HK 19.5 μg/plate): 1.0 | Number of revertants(M ± SD)/ plate (TA 100, + S9, HK 19.5 μg/plate): 128 ± 6 revertants/plate | MI (mutagenicity index) (TA 100, + S9, HK 39.0 μg/plate): 0.9 | Number of revertants(M ± SD)/ plate (TA 100, + S9, HK 39.0 μg/plate): 115 ± 8 revertants/plate | MI (mutagenicity index) (TA 100, + S9, HK 58.5 μg/plate): 1.1 | Number of revertants(M ± SD)/ plate (TA 100, + S9, HK 58.5 μg/plate): 134 ± 2 revertants/plate | MI (mutagenicity index) (TA 100, + S9, HK 78.0 μg/plate): 1.0 | Number of revertants(M ± SD)/ plate (TA 100, + S9, HK 78.0 μg/plate): 120 ± 8 revertants/plate | MI (mutagenicity index) (TA 100, - S9, HK 19.5 μg/plate): 1.0 | Number of revertants(M ± SD)/ plate (TA 100, - S9, HK 19.5 μg/plate): 129 ± 6 revertants/plate | MI (mutagenicity index) (TA 100, - S9, HK 39.0 μg/plate): 1.0 | Number of revertants(M ± SD)/ plate (TA 100, - S9, HK 39.0 μg/plate): 134 ± 5 revertants/plate | MI (mutagenicity index) (TA 100, - S9, HK 58.5 μg/plate): 0.8 | Number of revertants(M ± SD)/ plate (TA 100, - S9, HK 58.5 μg/plate): 112 ± 3 revertants/plate | MI (mutagenicity index) (TA 100, - S9, HK 78.0 μg/plate): 1.1 | Number of revertants(M ± SD)/ plate (TA 100, - S9, HK 78.0 μg/plate): 140 ± 9 revertants/plate
